Data published in patent EP0337598A2, “Use of porphyrins and metalloporphyrins in the treatment of diseases caused by Human Immunodeficiency Viruses” (GEORGIA STATE UNIVERSITY FOUNDATION, INC., priority 1988, dated 1989).
Structures can show the parent of a compound that is named as a salt. Where two headings read alike, the source gives them in different places.

Key:
[1] = mouse, cited from earlier work
LAV strain of HIV = assay: Assay of anti-HIV activity: HIV production in infected MT-4 cells; assay type: cell-based; conditions: in the dark, result in words
[2] = intravenous, rabbit; cited from earlier work
[3] = intravenous, rat; cited from earlier work
[4] = intravenous, cat; cited from earlier work
[5] = system: Herpes simplex virus (HSV) type 1, strain WT-51; assay: Anti-HSV activity: virus infectivity in culture fluid of infected BS-C-40 monolayers by plaque method; assay type: cell-based; conditions: m.o.i. 0.01, 18 hours of incubation, result in words
Procedure: Herpes simplex virus (HSV) type 1, strain WT-51, and BS-C-40, an African green monkey kidney cell line, were used. HSV stock was prepared in BS-C-40 and the infectivity of the virus was measured on BS-C-40 monolayers by plaque method. Eagle's minimal essential medium (MEM) supplemented with 8% newborn calf serum was used as the culture medium and cells were incubated at 37°C in a humidified CO₂-incubator (5% CO₂, 95% air).
BS-C-40 monolayers were infected with HSV at the m.o.i. of 0.01 at 37°C for 1 hour and the monolayers were washed with MEM, and fresh culture medium was added. After 18 hours of incubation in the presence or absence of protoporpyrin, the virus infectivity in the culture fluid was measured by plaque method.
Two tenths ml aliquots of serially 10-fold diluted virus were inoculated onto confluent monolayer of cells in 35 mm plastic petridishes. After adsorption of the virus at 37°C for 1 hour, the monolayers were overlaid with 2 ml of MEM with 1% methylcellulose and 2% newborn calf serum. On day 3, the monolayers were stained with neutral red and plaque counts were made.

C=CC1=C(C)c2cc3[nH]c(cc4nc(cc5[nH]c(cc1n2)c(C)c5CCC(=O)O)C(CCC(=O)O)=C4C)c(C)c3C=C [Protoporphyrin disodium salt]
LD₅₀ ([1]; intraperitoneal): 1,028.6 mg/kg
LD₅₀ ([1]; intravenous): 347.3 mg/kg
LD₅₀ ([1]; oral): > 25,000.0 mg/kg
LD₅₀ ([1]; subcutaneous): 1,147.0 mg/kg
anti-HIV activity (antivirally active when production of HIV was reduced as compared with the control) (LAV strain of HIV): potent anti-HIV activity
LD₅₀ [2]: 220.0 mg/kg
LD₅₀ [3]: 240.3 mg/kg
LD₅₀ [4]: 215.5 mg/kg
anti-HSV activity [5]: no anti-HSV activity
